From patent US10828301B2, “2,4-pyrimidinediamine compounds and their uses” (Rigel Pharmaceuticals, Inc, priority 2002, dated 2020) come the findings set out here.

The first test has as its system cultured human mast cells (CHMC). The test is described as follows: CHMC low cell density IgE activation: tryptase and LTC4 assays. Type of test: cell-based. Particulars: Homo sapiens, Mast cell, Low Density CHMC, anti-IgE activation, hexosaminidase readout; read-out: CHMC anti-IgE Hexos. The protocol: Pellet CHMC cells (980 rpm, 10 min) and resuspend in pre-warmed MT. Add 65 ul of cells to each 96-well plate. Depending on the degranulation activity for each particular CHMC donor, load 1000-1500 cells/well. Mix four times followed by a 1 hr incubation at 37° C. […] Stimulate cells by adding 25 ul of 6× anti-IgE solution to the appropriate plates. Add 25 ul MT to un-stimulated control wells. Mix twice following addition of the anti-IgE. Incubate at 37° C. for 30 minutes. […] Spin plates at 1000 rpm for 10 min to pellet cells. Transfer 25 ul of supernatant to a 96-well black bottom plate and add 100 ul of freshly diluted tryptase substrate solution to each well. Incubate plates at room temperature for 30 min.
Leukotriene C4 (LTC4) is also quantified using an ELISA kit on appropriately diluted supernatant samples (determined empirically for each donor cell population so that the sample measurement falls within the standard curve) following the supplier's instructions.
Regarding `COc1ccc(CNc2ncc(F)c(Nc3ccc4c(c3)OCCO4)n2)cc1` [Compound R926230, N4-(3,4-Ethylenedioxyphenyl)-5-fluoro-N2-(4-methoxybenzyl)-2,4-pyrimidinediamine], the IC50 was over 10 µM. Consider `COCCNc1ncc(F)c(Nc2ccc3c(c2)OCCO3)n1` [Compound R926229, N4-(3,4-Ethylenedioxyphenyl)-5-fluoro-N2-(2-methoxyethyl)-2,4-pyrimidinediamine], for which the IC50 is over 10 µM.

Staying with this test, now noted: Homo sapiens, Mast cell, Low Density CHMC, anti-IgE activation, tryptase readout; read-out: CHMC anti-IgE Tryptase.
As to `COC(=O)C1Cc2cc(Nc3ncc(F)c(Nc4ccc(OC)nc4OC)n3)ccc2O1` (racemic) [Compound R927032, (±)-N2-(2,3-Dihydro-2-methoxycarbonylbenzofuran-5-yl)-N4-(2,6-dimethoxypyridin-3-yl)-5-fluoro-2,4-pyrimidinediamine], the IC50 came to 0.899 µM. Take `Oc1cccc(Nc2ncc(F)c(Nc3ccc(Cl)nc3)n2)c1` [Compound R927018, N4-(6-Chloropyridin-3-yl)-5-fluoro-N2-(3-hydroxyphenyl)-2,4-pyrimidinediamine]: the IC50 came to 1.45 µM.

Turning to `CCOc1ccc(Nc2ccnc(Nc3ccc(OCC)c(N)c3)n2)cc1N` [Compound R950142, N2,N4-Bis(3-amino-4-ethoxyphenyl)-2,4-pyrimidinediamine], the IC50 amounted to 10 µM.

For the compound `CC(=O)c1cccc(Nc2ncc(F)c(Nc3cccc(C(C)=O)c3)n2)c1` [Compound R950376, N2,N4-Bis(3-methylcarbonylphenyl)-5-fluoro-2,4-pyrimidinediamine], the IC50 was found to be 2.54 µM. For the compound `COc1ccc(Nc2ncc(F)c(Nc3ccc(OC)c(C(=O)O)c3)n2)cc1C(=O)O` [Compound R945067, N2,N4-Bis(3-carboxy-4-methoxyphenyl)-5-fluoro-2,4-pyrimidinediamine], the IC50 is over 10 µM. For `Nc1cccc(Nc2ccnc(Nc3cccc(N)c3)n2)c1` [Compound R950109, N2,N4-Bis(3-aminophenyl)-2,4-pyrimidinediamine], the IC50 is 7.95 µM. On the same count and under the same terms, the same measure for `O=C(O)c1cc2cc(Nc3ncc(F)c(Nc4cccc(O)c4)n3)ccc2o1` [Compound R926478, N2-(2-Carboxybenzofuran-5-yl)-5-fluoro-N4-(3-hydroxyphenyl)-2,4-pyrimidinediamine]: over 10 µM; for `CCOC(=O)C1CCN(C(=O)c2cccc(Nc3ncc(F)c(Nc4ccc5cc[nH]c5c4)n3)c2)CC1` [Compound R926935, N2-[3-[[4-(Ethoxycarbonyl)piperidino]carbonyl]phenyl]-5-fluoro-N4-[(1H)-indol-6-yl]-2,4-pyrimidinediamine]: 4.44 µM. On the same count and under the same terms, the figure for `CC(C)(CO)c1ccc(Nc2nc(Nc3ccc4c(c3)OCCO4)ncc2F)cc1` [Compound R935149, N2-(3,4-Ethylenedioxyphenyl)-N4-[4-(2-hydroxy-1,1-dimethylethyl)phenyl]-5-fluoro-2,4-pyrimidinediamine] is 0.708 µM. Take `COc1cc(Nc2ncc(F)c(Nc3ccc(C(=O)O)c(OC)c3)n2)ccc1C(=O)O` [Compound R945068, N2,N4-Bis(4-carboxy-3-methoxyphenyl)-5-fluoro-2,4-pyrimidinediamine]: the IC50 is over 10 µM. Still for that read-out and setting: the figure for `OC(CNc1ncc(F)c(NCC(O)c2ccccc2)n1)c1ccccc1` (stereo not shown) [Compound R925768, N2,N4-Bis(2-hydroxy-2-phenylethyl)-5-fluoro-2,4-pyrimidinediamine] is over 10 µM.

On to `CC(C)Oc1ccc(Nc2ncc(F)c(Nn3cccc3)n2)cc1` [Compound R935276, 5-Fluoro-N2-(4-isopropoxyphenyl)-N4-(1H-pyrrol-1-yl)-2,4-pyrimidinediamine], for which the IC50 was 2.33 µM. On the same count and under the same terms, the same measure for `COc1ccc(Nc2nc(Nc3cccc(O)c3)ncc2F)c(OC)n1` [Compound R926887, N4-(2,6-Dimethoxypyridin-3-yl)-5-fluoro-N2-(3-hydroxyphenyl)-2,4-pyrimidinediamine]: 1.75 µM; for `COC(=O)c1cc(N)cc(Nc2ccnc(Nc3cc(N)cc(C(=O)OC)c3)n2)c1` [Compound R950132, N2,N4-Bis(3-amino-5-methoxycarbonylphenyl)-2,4-pyrimidinediamine]: 9 µM. On the same count and under the same terms, the figure for `CCOC(=O)c1cnc(Nc2ccc3c(c2)OCCO3)nc1Nc1ccc2c(c1)OCCO2` [Compound R926252, N2,N4-Bis(3,4-ethylenedioxyphenyl)-5-ethoxycarbonyl-2,4-pyrimidinediamine] is 2.8 µM; for `Nc1c(F)ccc(Nc2ncc(F)c(Nc3ccc(F)c(N)c3F)n2)c1F` [Compound R950138, N2,N4-Bis(3-amino-2,4-difluorophenyl)-5-fluoro-2,4-pyrimidinediamine] it is 9.5 µM; for `Nc1ccc(F)c(Nc2ncc(F)c(Nc3cc(N)ccc3F)n2)c1` [Compound R950158, N2,N4-Bis(5-amino-2-fluorophenyl)-5-fluoro-2,4-pyrimidinediamine] it is 9.98 µM. Still for that read-out and setting: the same measure for `CCOC(=O)C1CCN(C(=O)c2cccc(Nc3ncc(F)c(Nc4cccc(O)c4)n3)c2)CC1` [Compound R926939, N2-[3-[[4-(Ethoxycarbonyl)piperidino]carbonyl]phenyl]-5-fluoro-N4-(3-hydroxyphenyl)-2,4-pyrimidinediamine]: 3.62 µM; for `Nc1c(F)ccc(Nc2ccnc(Nc3ccc(F)c(N)c3F)n2)c1F` [Compound R950131, N2,N4-Bis(3-amino-2,4-difluorophenyl)-2,4-pyrimidinediamine]: over 10 µM; for `Cc1ccc(Nc2ccnc(Nc3ccc(C)c(N)c3)n2)cc1N` [Compound R950130, N2,N4-Bis(3-amino-4-methylphenyl)-2,4-pyrimidinediamine]: 4.9 µM. In the case of `O=C(O)c1cc2cc(Nc3ncc(F)c(Nc4ccc5c(c4)OCCO5)n3)ccc2o1` [Compound R926698, N4-(3,4-Ethylenedioxyphenyl)-5-fluoro-N2-(2-carboxybenzofuran-5-yl)-2,4-pyrimidinediamine], the IC50 was over 10 µM. In the case of `COC(=O)c1cc(Nc2ncc(F)c(Nc3ccc(OC)c(C(=O)OC)c3)n2)ccc1OC` [Compound R945066, N2,N4-Bis(4-methoxy-3-methoxycarbonylphenyl)-5-fluoro-2,4-pyrimidinediamine], the IC50 came to 5.2 µM. Same read-out and setting: the same measure for `CN1C(=O)COc2ccc(Nc3nc(Nc4cccc(O)c4)ncc3F)cc21` [Compound R908709, 5-Fluoro-N2-(3-hydroxyphenyl)-N4-(N-methyl-1,4-benzoxazin-3-on-6-yl)-2,4-pyrimidinediamine]: 2.41 µM; for `Nc1cc(Nc2ccnc(Nc3cc(N)cc(C(F)(F)F)c3)n2)cc(C(F)(F)F)c1` [Compound R950143, N2,N4-Bis(3-amino-5-trifluoromethylphenyl)-2,4-pyrimidinediamine]: 8.23 µM; for `Cc1ccc(N)cc1Nc1ncc(F)c(Nc2cc(N)ccc2C)n1` [Compound R950157, N2,N4-Bis(5-amino-2-methylphenyl)-5-fluoro-2,4-pyrimidinediamine]: over 10 µM. Turning to `Cc1ccc(Nc2nc(Nc3cccc(O)c3)ncc2F)nc1` [Compound R927017, 5-Fluoro-N2-(3-hydroxyphenyl)-N4-(5-methylpyridin-2-yl)-2,4-pyrimidinediamine], the IC50 came to 2.45 µM. Still for that read-out and setting: the figure for `Cc1onc(-c2ccccc2)c1Nc1ncc(F)c(Nc2ccc3c(c2)OCCO3)n1` [Compound R926743, N4-(3,4-Ethylenedioxyphenyl)-5-fluoro-N2-(3-phenyl-5-methylisoxazol-4-yl)-2,4-pyrimidinediamine] is over 10 µM.

Still in this test, the particulars now being: Homo sapiens, Mast cell, read-out: CHMC anti-IgE Tryptase.
For the compound `O=[N+]([O-])c1cc(Nc2ccnc(Nc3ccc(F)c([N+](=O)[O-])c3)n2)ccc1F` [Compound R950152, N2,N4-Bis(4-fluoro-3-nitrophenyl)-2,4-pyrimidinediamine], the IC50 came out at 10 µM. Take `O=[N+]([O-])c1ccc(O)c(Nc2ccnc(Nc3cc([N+](=O)[O-])ccc3O)n2)c1` [Compound R950155, N2,N4-Bis(2-hydroxy-5-nitrophenyl)-2,4-pyrimidinediamine]: the IC50 was over 10 µM. In the case of `Cc1ccc([N+](=O)[O-])cc1Nc1ncc(F)c(Nc2cc([N+](=O)[O-])ccc2C)n1` [Compound R950146, N2,N4-Bis(2-methyl-5-nitrophenyl)-5-fluoro-2,4-pyrimidinediamine], the IC50 was over 10 µM. Same read-out and setting: the figure for `Cc1ccc(Nc2ncc(F)c(Nc3ccc(C)c([N+](=O)[O-])c3)n2)cc1[N+](=O)[O-]` [Compound R950144, N2,N4-Bis(4-methyl-3-nitrophenyl)-5-fluoro-2,4-pyrimidinediamine] is 10 µM; for `O=[N+]([O-])c1ccc(F)c(Nc2ncc(F)c(Nc3cc([N+](=O)[O-])ccc3F)n2)c1` [Compound R950147, N2,N4-Bis(2-fluoro-5-nitrophenyl)-5-fluoro-2,4-pyrimidinediamine] it is over 10 µM. Still for that read-out and setting: the figure for `COc1ccc([N+](=O)[O-])cc1Nc1ncc(F)c(Nc2cc([N+](=O)[O-])ccc2OC)n1` [Compound R950151, N2,N4-Bis(2-methoxy-5-nitrophenyl)-5-fluoro-2,4-pyrimidinediamine] is over 10 µM.

The same test, now with this note: Low Density CHMC, anti-IgE activation, tryptase readout; read-out: CHMC anti-IgE Tryptase.
On to `CNC(=O)COc1cccc(Nc2ncc(F)c(Nc3cc(C)ccn3)n2)c1` [Compound R927016, 5-Fluoro-N2-[3-(N-methylamino)carbonylmethyleneoxyphenyl]-N4-(4-methylpyridin-2-yl)-2,4-pyrimidinediamine], for which the IC50 was 1.41 µM.

In the case of `CCOC(=O)CNc1cccc(Nc2ncc(F)c(Nc3cccc(O)c3)n2)c1` [Compound R950216], the IC50 stood at 0.327 µM.
